Data set [1] deals with T1, PIN8 (Arabidopsis thaliana, UniProt Q9LFP6).
T1 construct: full-length, tag-free; model residues 1–164 and 206–367, homodimer
T1 sequence (Q9LFP6 1-367): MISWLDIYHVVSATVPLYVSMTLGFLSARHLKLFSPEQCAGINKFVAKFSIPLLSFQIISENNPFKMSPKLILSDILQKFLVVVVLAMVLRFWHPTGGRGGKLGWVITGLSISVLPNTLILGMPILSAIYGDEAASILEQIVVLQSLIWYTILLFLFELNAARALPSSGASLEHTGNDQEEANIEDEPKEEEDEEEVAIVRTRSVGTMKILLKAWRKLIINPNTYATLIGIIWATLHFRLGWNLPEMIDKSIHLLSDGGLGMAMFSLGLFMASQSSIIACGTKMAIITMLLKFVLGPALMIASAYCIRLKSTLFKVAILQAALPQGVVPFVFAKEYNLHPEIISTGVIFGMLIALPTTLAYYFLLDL
In words: cryo-EM structure at […] Å (outward-open); apparent Kd by SSM electrophysiology competition with NPA binding current.

For data set [2], the target named is T1, PIN8. In words: cryo-EM structure at […] Å (inward-open); Ki from SSM electrophysiology on proteoliposomes. Format: biochemical.
Data set [3] concerns the molecule itself. In words: cryo-EM structure; purified tag-free PIN8 reconstituted in peptidisc; apo (2.9 Å), with 15 mM IAA (3.2 Å) and with 2 mM NPA (3.4 Å); C2 symmetry imposed, parallel C1 refinement showed no differences between the two monomers.

On to `O=C(O)Cc1c[nH]c2ccccc12` [IAA, Indole-3-acetic acid], for which the Kd in data set [1] was determined as 39.9 µM.
As usually defined, the Ki is a dissociation constant, usually derived from enzyme kinetics or from competition with a known ligand. A low value points to higher affinity. Consider `O=C(O)c1ccccc1C(=O)Nc1cccc2ccccc12` [NPA, naphthylphthalamic acid], for which, in data set [2], affinity was put at a Ki of 1.9 µM.

B1: Arabidopsis thaliana PIN8 (PIN-FORMED 8 auxin transporter) (natural protein, UniProt Q9LFP6 1-367, looked up)
chain: MISWLDIYHVVSATVPLYVSMTLGFLSARHLKLFSPEQCAGINKFVAKFSIPLLSFQIISENNPFKMSPKLILSDILQKFLVVVVLAMVLRFWHPTGGRGGKLGWVITGLSISVLPNTLILGMPILSAIYGDEAASILEQIVVLQSLIWYTILLFLFELNAARALPSSGASLEHTGNDQEEANIEDEPKEEEDEEEVAIVRTRSVGTMKILLKAWRKLIINPNTYATLIGIIWATLHFRLGWNLPEMIDKSIHLLSDGGLGMAMFSLGLFMASQSSIIACGTKMAIITMLLKFVLGPALMIASAYCIRLKSTLFKVAILQAALPQGVVPFVFAKEYNLHPEIISTGVIFGMLIALPTTLAYYFLLDL
notes: PIN8, Arabidopsis thaliana, UniProt Q9LFP6; the PIN8 gene cloned in a p423_GAL1-based plasmid; final models include residues 1-164 and 206-367 of 367 residues total; the cytosolic loop 165-205 is in the protein but not visible in the maps; also called AtPIN8; apo-PIN8; source: S. cerevisiae strain DSY-5, purified (Ni-NTA, TEV cleavage, SEC); in peptidisc or in LMNG detergent
One may read the stoichiometry N as a count of units in the complex or per binding partner. Turning to B1, the “stoichiometry N” value in data set [3] was found to be 2.

The values are drawn from paper PMC9477730, “Structures and mechanism of the plant PIN-FORMED auxin transporter” (Nature, 2022).
